Laboratory results reported in PubChem BioAssay (NCI).
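Results reflect a 48-hour exposure of cells in 96-well plates to compound at five concentrations. The concentration for full growth arrest is given as TGI.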

Columns and labels:
Assay in all cases: growth of human tumour cells (NCI), 48 h
[1] = system: 786-0 renal
[2] = system: A498 renal
[3] = system: A549 NSCLC
[4] = system: ACHN renal
[5] = system: CAKI-1 renal
[6] = system: CCRF-CEM leukemia
[7] = system: COLO 205 colon
[8] = system: DLD-1 colon
[9] = system: DMS 114 small cell lung
[10] = system: DMS 273 small cell lung
[11] = system: EKVX NSCLC
[12] = system: HCC-2998 colon
[13] = system: HCT-116 colon
[14] = system: HCT-15 colon
[15] = system: HL-60(TB) leukemia
[16] = system: HOP-62 NSCLC
[17] = system: HOP-92 NSCLC
[18] = system: HT29 colon
[19] = system: IGROV1 ovarian
[20] = system: K-562 leukemia
[21] = system: KM12 colon
[22] = system: KM20L2 colon
[23] = system: LOX IMVI melanoma
[24] = system: M19-MEL melanoma
[25] = system: MALME-3M melanoma
[26] = system: MOLT-4 leukemia
[27] = system: NCI-H226 lung
[28] = system: NCI-H23 lung
[29] = system: NCI-H460 lung
[30] = system: NCI-H522 lung
[31] = system: OVCAR-3 ovarian
[32] = system: OVCAR-4 ovarian
[33] = system: OVCAR-5 ovarian
[34] = system: OVCAR-8 ovarian
[35] = system: RPMI-8226 leukemia
[36] = system: RXF 393 renal
[37] = system: SF-268 CNS
[38] = system: SF-295 CNS
[39] = system: SF-539 CNS
[40] = system: SK-MEL-2 melanoma
[41] = system: SK-MEL-28 melanoma
[42] = system: SK-OV-3 ovarian
[43] = system: SN12C renal
[44] = system: SNB-19 CNS
[45] = system: SNB-75 CNS
[46] = system: SNB-78 CNS
[47] = system: SW-620 colon
[48] = system: TK-10 renal
[49] = system: U251 CNS
[50] = system: UACC-257 melanoma
[51] = system: UACC-62 melanoma
[52] = system: UO-31 renal
[53] = system: LXFL 529 NSCLC
[54] = system: M14 melanoma
[55] = system: RXF-631 renal
[56] = system: SK-MEL-5 melanoma
[57] = system: XF 498 CNS
[58] = system: SR leukemia
[59] = system: BT-549 breast
[60] = system: DU-145 prostate
[61] = system: HS 578T breast
[62] = system: MCF7 breast
[63] = system: MDA-MB-231 breast
[64] = system: MDA-MB-435
[65] = system: MDA-N
[66] = system: NCI/ADR-RES ovarian
[67] = system: PC-3 prostate
[68] = system: T-47D breast

O=C(/C=C/c1c(O)ccc2ccccc12)c1ccc2ccccc2c1 gave a TGI [1] of over 100 µM, a TGI [2] of over 100 µM and a TGI [3] of over 100 µM. The TGI [4] was over 100 µM, the TGI [5] was over 100 µM and the TGI [6] was over 100 µM. It also gave a TGI [7] of over 100 µM, a TGI [8] of over 100 µM and a TGI [9] of over 100 µM. It also gave a TGI [10] of over 100 µM, a TGI [11] of over 100 µM and a TGI [12] of over 100 µM. It also gave a TGI [13] of over 100 µM, a TGI [14] of over 100 µM and a TGI [15] of over 100 µM. The TGI [16] was over 100 µM, the TGI [17] was over 100 µM and the TGI [18] was over 100 µM. It also gave a TGI [19] of over 100 µM, a TGI [20] of over 100 µM and a TGI [21] of over 100 µM. For the same compound, the TGI [22] was over 100 µM, the TGI [23] was over 100 µM and the TGI [24] was 35.9 µM. The TGI [25] was over 100 µM, the TGI [26] was over 100 µM and the TGI [27] was over 100 µM. It also gave a TGI [28] of over 100 µM, a TGI [29] of over 100 µM and a TGI [30] of over 100 µM. For the same compound, the TGI [31] was over 100 µM, the TGI [32] was over 100 µM and the TGI [33] was over 100 µM. It also gave a TGI [34] of over 100 µM, a TGI [35] of over 100 µM and a TGI [36] of over 100 µM. It also gave a TGI [37] of over 100 µM, a TGI [38] of over 100 µM and a TGI [39] of over 100 µM. For the same compound, the TGI [40] was over 100 µM, the TGI [41] was over 100 µM and the TGI [42] was over 100 µM. The TGI [43] was over 100 µM, the TGI [44] was over 100 µM and the TGI [45] was over 100 µM. It also gave a TGI [46] of over 100 µM, a TGI [47] of over 100 µM and a TGI [48] of over 100 µM. For the same compound, the TGI [49] was over 100 µM, the TGI [50] was over 100 µM and the TGI [51] was over 100 µM. For the same compound, the TGI [52] was over 100 µM.

COc1ccc(C(=O)C(CO)Oc2ccccc2OC)cc1OC (centres undefined) gave a TGI [1] of over 100 µM, a TGI [2] of over 100 µM and a TGI [3] of over 100 µM. For the same compound, the TGI [4] was over 100 µM, the TGI [5] was over 100 µM and the TGI [6] was over 100 µM. For the same compound, the TGI [7] was over 100 µM, the TGI [8] was over 100 µM and the TGI [9] was over 100 µM. For the same compound, the TGI [10] was over 100 µM, the TGI [11] was over 100 µM and the TGI [12] was over 100 µM. For the same compound, the TGI [13] was over 100 µM, the TGI [14] was over 100 µM and the TGI [15] was over 100 µM. The TGI [16] was over 100 µM, the TGI [18] was over 100 µM and the TGI [19] was over 100 µM. For the same compound, the TGI [20] was over 100 µM, the TGI [21] was over 100 µM and the TGI [22] was over 100 µM. For the same compound, the TGI [23] was over 100 µM, the TGI [53] was over 100 µM and the TGI [54] was over 100 µM. It also gave a TGI [24] of over 100 µM, a TGI [25] of over 100 µM and a TGI [26] of over 100 µM. It also gave a TGI [28] of over 100 µM, a TGI [29] of over 100 µM and a TGI [30] of over 100 µM. It also gave a TGI [31] of over 100 µM, a TGI [32] of over 100 µM and a TGI [33] of over 100 µM. For the same compound, the TGI [34] was over 100 µM, the TGI [35] was over 100 µM and the TGI [55] was over 100 µM. For the same compound, the TGI [37] was over 100 µM, the TGI [38] was over 100 µM and the TGI [39] was over 100 µM. The TGI [40] was over 100 µM, the TGI [41] was over 100 µM and the TGI [56] was over 100 µM. It also gave a TGI [42] of over 100 µM, a TGI [43] of over 100 µM and a TGI [44] of over 100 µM. The TGI [45] was over 100 µM, the TGI [46] was over 100 µM and the TGI [47] was over 100 µM. The TGI [48] was over 100 µM, the TGI [49] was over 100 µM and the TGI [50] was over 100 µM. For the same compound, the TGI [51] was over 100 µM, the TGI [52] was over 100 µM and the TGI [57] was over 100 µM.

CCN1CCN(c2ccc(Nc3ccnc4ccc5nn(C)nc5c34)cc2)CC1 showed a TGI [1] of 22.6 µM, a TGI [3] of 27.3 µM and a TGI [4] of 28 µM. For the same compound, the TGI [5] was 29 µM, the TGI [6] was over 100 µM and the TGI [7] was 18.4 µM. It also gave a TGI [8] of 28.3 µM, a TGI [9] of 22.6 µM and a TGI [12] of 26 µM. For the same compound, the TGI [13] was 18.1 µM, the TGI [14] was 27.6 µM and the TGI [15] was over 100 µM. It also gave a TGI [16] of 26.4 µM, a TGI [17] of 26.5 µM and a TGI [18] of 16.6 µM. The TGI [19] was 39.5 µM, the TGI [20] was over 100 µM and the TGI [21] was 24 µM. The TGI [22] was 27.4 µM, the TGI [23] was 20.1 µM and the TGI [53] was 23.8 µM. It also gave a TGI [54] of 30 µM, a TGI [24] of 29.8 µM and a TGI [25] of 30.8 µM. For the same compound, the TGI [26] was over 100 µM, the TGI [27] was 26.2 µM and the TGI [28] was 29.4 µM. The TGI [29] was 17.2 µM, the TGI [30] was 23.6 µM and the TGI [31] was 29.5 µM. For the same compound, the TGI [32] was 26.1 µM, the TGI [33] was 32.5 µM and the TGI [34] was 25.3 µM. The TGI [35] was over 100 µM, the TGI [36] was 22.5 µM and the TGI [55] was 23.9 µM. For the same compound, the TGI [37] was 29.8 µM, the TGI [38] was 25.5 µM and the TGI [39] was 27.2 µM. The TGI [41] was 30.5 µM, the TGI [56] was 28.5 µM and the TGI [42] was 31.5 µM. It also gave a TGI [43] of 42.3 µM, a TGI [44] of 43.9 µM and a TGI [45] of 26.4 µM. The TGI [46] was 33.8 µM, the TGI [58] was over 100 µM and the TGI [47] was 19.7 µM. The TGI [48] was 39.4 µM, the TGI [49] was 27 µM and the TGI [50] was 30.7 µM. The TGI [51] was 30.8 µM, the TGI [52] was 26.7 µM and the TGI [57] was 26.9 µM.

O=C(CC(c1ccccc1)N1CCCCC1)c1ccccc1 (centres undefined) gave a TGI [1] of 25.9 µM, a TGI [2] of 29.3 µM and a TGI [3] of 41.3 µM. The TGI [4] was 30.7 µM, the TGI [59] was 34.8 µM and the TGI [5] was 30.3 µM. It also gave a TGI [6] of 4.69 µM, a TGI [7] of 37.9 µM and a TGI [60] of 32.3 µM. It also gave a TGI [11] of 34.5 µM, a TGI [12] of 15.6 µM and a TGI [13] of 19.9 µM. For the same compound, the TGI [14] was 36.6 µM, the TGI [15] was 33.7 µM and the TGI [16] was 33.9 µM. It also gave a TGI [17] of 32.7 µM, a TGI [61] of 70.5 µM and a TGI [18] of 29.5 µM. The TGI [19] was 29.1 µM, the TGI [20] was 8.6 µM and the TGI [21] was 22.6 µM. It also gave a TGI [23] of 20.6 µM, a TGI [54] of 42.3 µM and a TGI [25] of 30.7 µM. The TGI [62] was 15.4 µM, the TGI [63] was 34.6 µM and the TGI [64] was 27.4 µM. The TGI [65] was 27.3 µM, the TGI [26] was 3.92 µM and the TGI [27] was 37.4 µM. For the same compound, the TGI [28] was 31.6 µM, the TGI [29] was 26.6 µM and the TGI [30] was 28.6 µM. For the same compound, the TGI [66] was 60.8 µM, the TGI [31] was 23.9 µM and the TGI [32] was 40.2 µM. It also gave a TGI [33] of 32.9 µM, a TGI [34] of 33.4 µM and a TGI [67] of 29.4 µM. It also gave a TGI [35] of 5.23 µM, a TGI [36] of 33.6 µM and a TGI [37] of 33.4 µM. For the same compound, the TGI [38] was 31.2 µM, the TGI [39] was 39.2 µM and the TGI [40] was 35.4 µM. The TGI [41] was 32.4 µM, the TGI [56] was 29.6 µM and the TGI [42] was 31.4 µM. The TGI [43] was 32.6 µM, the TGI [44] was 36.1 µM and the TGI [45] was 31.4 µM. The TGI [58] was 6.15 µM, the TGI [47] was 18.7 µM and the TGI [68] was 37.6 µM. For the same compound, the TGI [48] was 27.3 µM, the TGI [49] was 21.9 µM and the TGI [50] was 27.8 µM. The TGI [51] was 30.7 µM and the TGI [52] was 36.8 µM.
